{
  "source": "patent US10905738B2",
  "about": "“Synthetic peptides, prodrugs, pharmaceutical compositions and uses” (Biozeus Desenvolvimento De Produtos Biofarmacêuticos, priority 2018, dated 2021)",
  "key": {"cavernosal strips": {"system": "cavernosal strips", "experiment": "relaxation induced by electric stimuli in cavernosal strips pre-contracted with phenylephrine ex vivo", "parameters": "species or system rats of Sprague Dawley (SD) lineage", "conditions": "peptides 10^−10 M; 10^−8 M; 10^−6 M; FIG. 3", "procedure": "The relaxing potential of the peptides of the present invention on the smooth muscles of cavernous strips was evaluated ex vivo using tissue isolated from rats, a model that is largely used to test drug candidates for the treatment of ED (ITALIANO, G., CALABRÒ, A., PAGANO, F. A simplified in vitro preparation of the corpus cavernosum as a tool for investigating erectile pharmacology in the rat. Pharmacological research, 30(4): 325-334. 1994; GEMALMAZ, H., WALDECK, K., CHAPMAN, T. N., TUTTLE, J. B., STEERS, W. D., ANDERSSON, K E. In vivo and in vitro investigation of the effects of sildenafil on rat cavernous smooth muscle. The Journal of Urology, 165(3): 1010-1014.2001).\nMale rats of Sprague Dawley (SD) lineage were sacrificed by guillotine; the penises were removed surgically and placed on a Petri dish containing Krebs—bicarbonate solution (NaCl 118.1 mM; KCl 4.7 mM; KH2PO4 1.0 mM; MgSO4 1.0 mM; NaHCO3 25.0 mM; CaCl2) 2.5 mM and Glucose 11.1 mM). The corpus cavernosum were dissected by removing the glans, urethra, spongeous body and dorsal vein, and then separated by cutting the fibrous septum between them. Cavernosal strips measuring 2×2×7 mm were mounted separately in a bath for isolated organs containing bicarbonate solution-Krebs (pH 7.4) at 37° C., aerated with 95% of O02 and 5% of CO2. The tissue was connected to a tension transducer and the changes in tension were continuously registered. The cavernosal strips were contracted with phenylephrine (10^−5 M) and subsequently relaxed by electrical stimulation at different frequencies (1 to 32 Hz). […] Differences in the percentage of relaxation between treatment and control were evaluated with regard to statistical significance by means of two-way variance analysis (Two-Way ANOVA) followed by Bonferroni post-test. For the comparison between the treatments and control in light of the stimulation in a single frequency, the results were evaluated by one-way analysis variance (One-Way ANOVA) followed by Bonferroni post-test. […]"}, "[1]": {"system": "smooth muscle of tracheal rings", "experiment": "spasmodic contraction of tracheal rings ex vivo (histamine-induced)", "parameters": "species or system Dunkin-Hartley guinea pigs", "conditions": "mean±SEM", "procedure": "The magnitude of the relaxing effect of the peptides was evaluated by means of a model of spasmodic contraction of tracheal rings ex vivo, largely employed to test new bronchodilating agents (see CULLUM, V. A., FARMER, J. B., JACK, D., LEVY, G. P. Salbutamol: a new, selective β-adrenoceptive receptor stimulant. British journal of pharmacology, 35(1): 141-151. 1969; KAO, C. H., CHU, Y. H., WANG, H. W. Effects of lidocaine on rat's isolated tracheal smooth muscle. European Archives of Oto-Rhino-Laryngology, 267(5): 817-820. 2010; SORIANO-URSÚA, M. A., VALENCIA-HERNÁNDEZ, I., ARELLANO-MENDOZA, M. G., CORREA-BASURTO, J., TRUJILLO-FERRARA, J. G. Synthesis, pharmacological and in silico evaluation of 1-(4-dihydroxy-3, 5-dioxa-4-borabycyclo [4.4.0] deca-7,9,11-trien-9-yl)-2-(tert-butylamine) ethanol, a compound designed to act as a β2 adrenoceptor agonist. European journal of medicinal chemistry, 44(7): 2840-2846. 2009).\nFor each test, Dunkin-Hartley guinea pigs (400-500 g) were euthanized in a CO2 atmosphere; subsequently, the trachea was exposed, removed and sectioned in segments of 1 to 3 cartilaginous tracheal rings. Each segment was transferred to an individual organ bath system containing Krebs nutritive solution (NaCl 118 mM; KCl […]; CaCl2) 2.5 mM; MgSO4 1.2 mM; KH2PO4 1.2 mM; NaHCO324 mM; glucose 11 mM) at 37° C., under constant aeration with a carbogenic mixture (95% of O2 and 5% of CO2). In each system, a stem fixed to the base of the container and another connected to an isometric transducer (GRASS FT-03) made up the support of the fragments. A data digitizing system connected to the isometric transducer allowed the recording of tension variations produced by the contraction of the tracheal rings (PowerLab™ 16/30, LabChart, version 8.1, AD Instruments, Australia). The basal tension was adjusted to 1 g, and subsequently, the contractility of the fragments was evaluated by a stimulus with carbachol (2.5 μM). After 1 h at rest, the basal tension was recovered and the tissues were subjected to contraction induced by histamine (50 μM) followed by exposure to increasing concentrations of the treatments (0.01 to 10 μM; n=8) or the comparator PnTx(19).\nTable 1 lists the mean±SEM of the potency values, shown as the negative logarithm of the concentration that reduced the voltage to 50% of the maximum Histamine-induced contraction (pEC50), and efficacy (Emax), calculated from at least 8 independent tests using the sigmoid nonlinear regression equation of the software Graph Prism 5.0 (GraphPad Software, La Jolla, Ca, USA)."}},
  "data": [
    {"sequence": "RQYFWIAWYKLANSK [SEQ ID NO: 5, Ac-Arg-Gln-Tyr-Phe-Trp-Ile-Ala-Trp-Tyr-Lys-Leu-Ala-Asn-Ser-Lys-NH2]", "values": [
      {"measurement": "enhancing effect on relaxation induced by electric stimuli in strips of cavernous body contracted by phenylephrine", "setting": "cavernosal strips", "result": "enhancing effect"},
      {"measurement": "Effectiveness (Emax) (%)", "setting": "[1]; relaxation of tracheal rings contracted by histamine (50 μM)", "result": "Inactive"},
      {"measurement": "Potency (pEC50) Molar", "setting": "[1]; tracheal rings contracted by histamine (50 μM), peptides 0.01 to 10 μM", "result": "Inactive"}
    ]}
  ]
}
